ChEMBL document CHEMBL4265878, “Dual-Specificity Tyrosine Phosphorylation-Regulated Kinase 1A (DYRK1A) Inhibitors as Potential Therapeutics” (J Med Chem, 2018)
One block for each molecule: values may come before it.

How the values were obtained:
[1] = biological target: Aurora kinase B (Homo sapiens) (UniProt Q96GD4); assay: Inhibition of aurora B (unknown origin) at 50 uM
[2] = biological target: T1, MAP kinase-activated protein kinase 5 (Homo sapiens) (UniProt Q8IW41); assay: Inhibition of PRAK (unknown origin) at 50 uM
T1 sequence (whole entry): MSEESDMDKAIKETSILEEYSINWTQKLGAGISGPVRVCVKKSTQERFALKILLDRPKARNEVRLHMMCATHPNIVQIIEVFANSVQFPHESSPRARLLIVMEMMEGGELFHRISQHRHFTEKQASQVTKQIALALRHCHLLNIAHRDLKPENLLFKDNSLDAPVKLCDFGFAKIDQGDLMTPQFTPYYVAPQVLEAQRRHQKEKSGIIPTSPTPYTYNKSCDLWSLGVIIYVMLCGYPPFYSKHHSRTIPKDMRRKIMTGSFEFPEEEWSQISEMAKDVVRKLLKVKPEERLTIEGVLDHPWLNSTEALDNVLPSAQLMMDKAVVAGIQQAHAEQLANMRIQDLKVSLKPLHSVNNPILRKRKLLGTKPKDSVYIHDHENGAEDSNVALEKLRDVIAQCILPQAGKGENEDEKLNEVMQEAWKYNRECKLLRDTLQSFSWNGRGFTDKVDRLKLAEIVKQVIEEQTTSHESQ

[3] = biological target: T2, Dual specificity tyrosine-phosphorylation-regulated kinase 1A (Homo sapiens, UniProt Q13627); assay: Inhibition of DYRK1A (unknown origin) at 50 uM
[4] = biological target: Casein kinase 2 (Rattus norvegicus, UniProt P19139); assay: Inhibition of rat liver CK2 using RRRADDSDDDDD as substrate after 10 mins in presence of [gamma-33P]ATP
[5] = biological target: T2, Dual specificity tyrosine-phosphorylation-regulated kinase 1A; assay: Inhibition of GST-tagged DYRK1A (unknown origin) expressed in Escherichia coli DH5alpha at 1 uM using RRRFRPASPLRGPPK as substrate after 30 mins by kinase-glo luminescence assay relative to control
[6] = biological target: T3, Amine oxidase [flavin-containing] A (Homo sapiens, UniProt P21397); assay: Inhibition of human recombinant MAO-A after 1 hr by MAO-Glo assay
T3 sequence (P21397 whole entry): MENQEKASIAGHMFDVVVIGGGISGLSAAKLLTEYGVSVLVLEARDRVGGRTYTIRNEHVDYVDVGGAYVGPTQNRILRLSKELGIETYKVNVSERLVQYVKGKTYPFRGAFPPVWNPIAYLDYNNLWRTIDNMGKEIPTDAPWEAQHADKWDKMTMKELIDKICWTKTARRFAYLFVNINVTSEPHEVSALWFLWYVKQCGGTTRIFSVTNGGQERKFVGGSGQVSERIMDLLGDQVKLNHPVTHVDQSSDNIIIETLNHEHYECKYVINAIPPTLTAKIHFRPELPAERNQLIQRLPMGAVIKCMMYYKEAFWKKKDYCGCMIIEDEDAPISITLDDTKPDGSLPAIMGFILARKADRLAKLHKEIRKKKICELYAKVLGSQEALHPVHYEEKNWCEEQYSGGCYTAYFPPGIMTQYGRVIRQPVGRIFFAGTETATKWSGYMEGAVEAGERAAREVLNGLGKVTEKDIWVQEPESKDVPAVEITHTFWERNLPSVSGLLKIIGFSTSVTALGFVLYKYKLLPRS

[7] = biological target: T2, Dual specificity tyrosine-phosphorylation-regulated kinase 1A; assay: Inhibition of DYRK1A (unknown origin)
[8] = biological target: T2, Dual specificity tyrosine-phosphorylation-regulated kinase 1A; assay: Inhibition of DYRK1A (unknown origin) at 10 uM relative to control
[9] = biological target: Glycogen synthase kinase-3 (Homo sapiens, UniProt P49840+P49841); assay: Inhibition of GSK-3 (unknown origin); format: protein assay
[10] = Inhibition of CLK (unknown origin); design: species or system Homo sapiens
[11] = biological target: Dual specificity protein kinase CLK2 (Homo sapiens, UniProt P49760); assay: Inhibition of CLK2 (unknown origin)
[12] = biological target: T4, Dual specificity tyrosine-phosphorylation-regulated kinase 2 (Homo sapiens, UniProt Q92630); assay: Inhibition of DYRK2 (unknown origin)
T4 sequence (Q92630 whole entry): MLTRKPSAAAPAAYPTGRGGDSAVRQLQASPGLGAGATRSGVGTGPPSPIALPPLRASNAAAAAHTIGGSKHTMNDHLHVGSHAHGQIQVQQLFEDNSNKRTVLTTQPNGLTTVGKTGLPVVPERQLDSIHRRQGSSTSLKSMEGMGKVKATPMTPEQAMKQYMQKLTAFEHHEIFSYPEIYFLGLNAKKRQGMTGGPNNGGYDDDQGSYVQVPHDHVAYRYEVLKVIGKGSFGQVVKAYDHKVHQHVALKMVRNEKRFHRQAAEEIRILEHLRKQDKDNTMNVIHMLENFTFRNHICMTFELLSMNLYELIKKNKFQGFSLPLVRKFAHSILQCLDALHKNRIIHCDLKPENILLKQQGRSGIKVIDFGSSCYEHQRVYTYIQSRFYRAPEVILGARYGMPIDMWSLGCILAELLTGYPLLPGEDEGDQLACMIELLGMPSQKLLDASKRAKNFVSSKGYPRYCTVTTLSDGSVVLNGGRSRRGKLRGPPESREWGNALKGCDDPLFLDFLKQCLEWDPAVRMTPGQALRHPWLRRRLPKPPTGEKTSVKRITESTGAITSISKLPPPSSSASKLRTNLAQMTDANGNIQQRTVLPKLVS

[13] = biological target: Dual specificity protein kinase CLK1 (Homo sapiens, UniProt P49759); assay: Inhibition of CLK1 (unknown origin)
[14] = biological target: T2, Dual specificity tyrosine-phosphorylation-regulated kinase 1A; assay: Inhibition of DYRK1A (unknown origin) by cell-based assay
[15] = biological target: T5, Dual specificity tyrosine-phosphorylation-regulated kinase 1B (Homo sapiens, UniProt Q9Y463); assay: Inhibition of human recombinant full length N-terminal GST-tagged DYRK1B expressed in baculovirus expression system using DYRKtide-F as substrate after 1 hr by electrophoretic analysis
[16] = biological target: T2, Dual specificity tyrosine-phosphorylation-regulated kinase 1A; assay: Inhibition of GST-tagged DYRK1A (unknown origin) expressed in Escherichia coli DH5alpha using RRRFRPASPLRGPPK as substrate after 30 mins by kinase-glo luminescence assay
[17] = biological target: T6, Dual specificity tyrosine-phosphorylation-regulated kinase 1A (Rattus norvegicus, UniProt Q63470); assay: Inhibition of rat recombinant GST-fused DYRK1A expressed in Escherichia coli in presence of [gamma-33P]ATP after 30 mins by scintillation counting analysis
[18] = biological target: T2, Dual specificity tyrosine-phosphorylation-regulated kinase 1A; assay: Inhibition of human recombinant full length GST-tagged DYRK1A expressed in baculovirus expression system assessed as decrease in tau phosphorylation at S396 preincubated for 10 mins followed by tau addition by Western blot analysis
[19] = biological target: T5, Dual specificity tyrosine-phosphorylation-regulated kinase 1B; assay: Inhibition of DYRK1B (unknown origin)
[20] = tested on: SW-620; assay: cells; conditions: Homo sapiens, SW-620, 96 h
[21] = biological target: T6, Dual specificity tyrosine-phosphorylation-regulated kinase 1A; assay: Inhibition of rat DYRK1A using KKISGRLSPIMTEQ as substrate in presence of [gamma-33P]ATP after 30 mins by scintillation counting analysis
[22] = biological target: Cyclin-dependent kinase 9 (Homo sapiens, UniProt P50750); assay: Inhibition of human full-length N-terminal GST-fused CDK9 (1 to 372 residues) expressed in baculovirus expression system using MBP as substrate after 100 mins by TR-FRET assay
[23] = biological target: T7, MAP kinase-activated protein kinase 5 (Homo sapiens, UniProt Q8IW41); assay: Inhibition of PRAK (unknown origin)
T7 sequence (Q8IW41 whole entry): T1 sequence (whole entry)

Chain of Casein kinase 2 (P67874 whole entry): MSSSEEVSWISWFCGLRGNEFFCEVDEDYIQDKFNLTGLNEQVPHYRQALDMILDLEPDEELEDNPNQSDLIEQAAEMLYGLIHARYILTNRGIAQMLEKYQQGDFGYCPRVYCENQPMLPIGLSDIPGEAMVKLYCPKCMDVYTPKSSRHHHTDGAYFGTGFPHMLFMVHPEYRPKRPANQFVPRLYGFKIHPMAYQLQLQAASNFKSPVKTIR
Chain of Casein kinase 2 (P19139 whole entry): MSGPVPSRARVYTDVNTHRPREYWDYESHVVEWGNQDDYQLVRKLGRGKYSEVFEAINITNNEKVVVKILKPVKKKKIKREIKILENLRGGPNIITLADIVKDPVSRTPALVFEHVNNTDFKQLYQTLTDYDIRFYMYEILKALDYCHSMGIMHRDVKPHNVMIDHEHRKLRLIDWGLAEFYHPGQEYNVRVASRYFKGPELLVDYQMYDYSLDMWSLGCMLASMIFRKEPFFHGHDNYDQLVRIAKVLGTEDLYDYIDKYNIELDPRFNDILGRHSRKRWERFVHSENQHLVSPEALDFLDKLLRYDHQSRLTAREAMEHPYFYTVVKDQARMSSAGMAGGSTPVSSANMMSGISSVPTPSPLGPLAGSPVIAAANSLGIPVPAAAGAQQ
T5 sequence (Q9Y463 whole entry): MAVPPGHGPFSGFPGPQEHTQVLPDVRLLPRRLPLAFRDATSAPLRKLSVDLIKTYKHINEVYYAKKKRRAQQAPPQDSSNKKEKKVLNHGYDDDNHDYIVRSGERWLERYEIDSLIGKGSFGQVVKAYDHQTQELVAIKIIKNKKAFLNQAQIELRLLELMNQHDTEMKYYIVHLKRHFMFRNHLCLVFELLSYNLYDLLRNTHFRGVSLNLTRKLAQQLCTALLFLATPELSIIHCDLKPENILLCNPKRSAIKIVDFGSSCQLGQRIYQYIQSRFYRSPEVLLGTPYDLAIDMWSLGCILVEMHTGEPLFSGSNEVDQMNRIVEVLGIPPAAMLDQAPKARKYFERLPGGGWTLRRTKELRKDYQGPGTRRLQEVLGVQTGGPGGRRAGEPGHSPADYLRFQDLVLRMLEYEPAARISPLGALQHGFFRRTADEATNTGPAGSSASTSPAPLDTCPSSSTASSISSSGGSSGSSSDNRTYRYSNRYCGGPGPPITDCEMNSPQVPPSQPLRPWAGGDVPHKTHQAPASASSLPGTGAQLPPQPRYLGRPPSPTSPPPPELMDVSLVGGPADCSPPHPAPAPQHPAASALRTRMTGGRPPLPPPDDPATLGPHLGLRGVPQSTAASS
Chain of Cyclin-dependent kinase 9 (P50750 whole entry, the tested form may be a part): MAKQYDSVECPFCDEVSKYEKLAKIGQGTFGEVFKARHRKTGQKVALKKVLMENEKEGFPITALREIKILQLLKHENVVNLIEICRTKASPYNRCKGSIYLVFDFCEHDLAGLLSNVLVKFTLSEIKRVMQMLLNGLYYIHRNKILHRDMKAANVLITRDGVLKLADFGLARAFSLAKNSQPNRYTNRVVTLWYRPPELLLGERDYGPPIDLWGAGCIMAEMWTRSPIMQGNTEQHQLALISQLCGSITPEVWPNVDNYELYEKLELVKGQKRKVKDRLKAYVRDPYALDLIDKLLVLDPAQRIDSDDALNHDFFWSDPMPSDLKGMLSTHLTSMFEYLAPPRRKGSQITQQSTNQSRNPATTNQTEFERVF
Chain of Dual specificity protein kinase CLK2 (P49760 whole entry): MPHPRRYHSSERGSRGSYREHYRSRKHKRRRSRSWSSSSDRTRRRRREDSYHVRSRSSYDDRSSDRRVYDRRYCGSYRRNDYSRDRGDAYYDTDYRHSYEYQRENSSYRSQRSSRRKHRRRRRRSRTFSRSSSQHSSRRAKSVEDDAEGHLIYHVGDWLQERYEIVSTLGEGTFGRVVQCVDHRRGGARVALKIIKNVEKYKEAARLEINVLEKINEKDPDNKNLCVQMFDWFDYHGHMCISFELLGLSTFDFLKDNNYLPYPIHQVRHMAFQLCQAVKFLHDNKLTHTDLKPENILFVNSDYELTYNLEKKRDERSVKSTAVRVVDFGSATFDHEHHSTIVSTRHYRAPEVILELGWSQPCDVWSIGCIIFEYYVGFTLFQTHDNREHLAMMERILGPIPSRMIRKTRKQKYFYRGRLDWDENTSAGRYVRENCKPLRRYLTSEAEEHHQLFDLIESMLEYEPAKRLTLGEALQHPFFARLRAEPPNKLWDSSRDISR
Chain of Aurora kinase B (Homo sapiens) (Q96GD4 whole entry): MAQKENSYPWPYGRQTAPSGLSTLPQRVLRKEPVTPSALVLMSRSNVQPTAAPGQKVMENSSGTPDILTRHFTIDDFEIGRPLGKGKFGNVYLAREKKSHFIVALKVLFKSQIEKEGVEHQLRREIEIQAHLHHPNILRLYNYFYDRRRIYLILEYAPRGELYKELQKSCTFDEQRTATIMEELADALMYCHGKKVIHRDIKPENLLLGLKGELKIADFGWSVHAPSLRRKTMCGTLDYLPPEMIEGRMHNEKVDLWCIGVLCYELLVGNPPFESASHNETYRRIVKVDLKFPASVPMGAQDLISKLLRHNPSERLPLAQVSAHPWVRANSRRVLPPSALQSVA
Chain of Dual specificity protein kinase CLK1 (P49759 whole entry): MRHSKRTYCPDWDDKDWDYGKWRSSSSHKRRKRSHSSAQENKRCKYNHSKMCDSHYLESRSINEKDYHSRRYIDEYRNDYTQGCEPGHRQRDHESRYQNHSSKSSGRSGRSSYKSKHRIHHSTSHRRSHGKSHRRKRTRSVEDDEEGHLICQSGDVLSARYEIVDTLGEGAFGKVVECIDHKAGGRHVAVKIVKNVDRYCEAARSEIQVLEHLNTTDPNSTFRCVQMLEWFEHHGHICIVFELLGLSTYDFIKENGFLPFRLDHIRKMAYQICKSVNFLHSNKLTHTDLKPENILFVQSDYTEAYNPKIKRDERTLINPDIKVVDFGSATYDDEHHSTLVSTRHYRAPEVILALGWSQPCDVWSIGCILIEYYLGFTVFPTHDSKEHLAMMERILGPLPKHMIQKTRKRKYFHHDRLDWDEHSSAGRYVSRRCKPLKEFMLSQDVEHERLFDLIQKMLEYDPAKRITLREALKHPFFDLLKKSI

Structure (SMILES): CN(C)c1nc2c(Br)c(Br)c(Br)c(Br)c2[nH]1
- IC50 [7]: 400 nM

Structure (SMILES): CS(=O)(=O)c1ccc(-n2cnc3ccc(-c4ccncc4)cc32)cc1
- inhibition [8]: 60 to 100%

Structure (SMILES): CN1C(=O)/C(=C\c2ccc3c(c2)OCO3)N=C1N
- IC50 [11]: 910 nM
- IC50 [12]: 490 nM
- IC50 [13]: 100 nM

Structure (SMILES): CC(C)[C@H](CO)Nc1nc(Nc2cccc(Cl)c2)c2ncn(C(C)C)c2n1 [PURVALANOLA]
- IC50 [14]: 300 nM

Structure (SMILES): Brc1c(Br)c(Br)c2[nH]cnc2c1Br
- IC50 [7]: 2100 nM

Structure (SMILES): N=C1NC(=O)/C(=C/c2ccc3c(c2)CCO3)S1
- IC50 [15]: 24.1 nM

Structure (SMILES): NC(=O)c1ccc(-n2cnc3ccc(-c4ccncc4)cc32)cc1
- inhibition [8]: 60 to 100%

Structure (SMILES): COc1ccc2c(c1)[nH]c1c(C)nccc12
- inhibition [5]: > 60%

Structure (SMILES): N#Cc1ccc(-n2cnc3ccc(-c4ccncc4)cc32)cc1
- inhibition [8]: 60 to 100%

Structure (SMILES): O=C(O)c1ccc(-n2cnc3ccc(-c4ccncc4)cc32)cc1
- inhibition [8]: 60 to 100%

Structure (SMILES): COc1ccc(-n2cnc3ccc(-c4ccncc4)cc32)cc1
- inhibition [8]: 60 to 100%

Structure (SMILES): c1cc(-c2ccc3ncn(-c4ccc5[nH]cnc5c4)c3c2)ccn1
- inhibition [8]: 60 to 100%

Structure (SMILES): CC[C@H](CO)Nc1nc(NCc2ccccc2)n2ncc(C(C)C)c2n1
- IC50 [17]: 1300 nM

Structure (SMILES): Cc1nccc2c1[nH]c1cc(O)ccc12
- IC50 [18]: 90 nM

Structure (SMILES): COC(=O)c1ccc(-n2cnc3ccc(-c4ccncc4)cc32)cc1
- inhibition [8]: 60 to 100%

Structure (SMILES): CCOc1ccccc1CNc1nc(C)nc2[nH]cc(-c3ccnc(N)c3)c12
- IC50 [22]: 10 nM

Structure (SMILES): O=C(O[C@@H]1Cc2c(O)cc(O)cc2O[C@@H]1c1cc(O)c(O)c(O)c1)c1cc(O)c(O)c(O)c1 [EPIGALOCATECHIN GALLATE]
- IC50 [23]: 1000 nM

Results, then the molecule that gave them:

- inhibition [1]: 84%
- inhibition [2]: 91%
- inhibition [3]: 90%
Structure (SMILES): COc1ccc(/C=C/C(=O)c2c(O)cc(OC)cc2OC)cc1

- IC50 [4]: 32300 nM
Structure (SMILES): Cc1cc(=O)oc2cc3cc(O)ccc3cc12

- inhibition [5]: 90%
- IC50 [6]: > 10000 nM
Structure (SMILES): COc1ccc2c3ccnc(Cl)c3n(CC#N)c2c1

- IC50 [9]: 410 nM
- IC50 [10]: 60 to 70 nM
Structure (SMILES): O=C1NC(Nc2ccccc2)=N/C1=C/c1ccc2c(c1)OCO2

- IC50 [4]: 370 nM
Structure (SMILES): Cc1cc(=O)oc2cc3c([N+](=O)[O-])c(O)ccc3cc12

- IC50 [16]: 81 nM
- inhibition [5]: 92%
Structure (SMILES): COc1ccc2c3ccnc(C)c3n(CC#N)c2c1

- IC50 [7]: 620 nM
- IC50 [19]: 6400 nM
Structure (SMILES): COc1cc(-c2cc(=O)c3c(O)cc(O)c(C/C=C(\C)CCC=C(C)C)c3o2)ccc1O

- EC50 [20]: 306 nM
Structure (SMILES): COc1cc2[nH]c(=O)c(C(=O)Nc3cc(C(=O)NCc4cccc(Cl)c4)ccc3C)cc2cc1CCCN1CCOCC1

- IC50 [21]: 610 nM
Structure (SMILES): O=c1[nH]c(NCCO)nc2ccc3[nH]ncc3c12
